From patent publication US9839614B2, “Nanoparticle and polymer formulations for thyroid hormone analogs, antagonists, and formulations and uses thereof” (NANOPHARMACEUTICALS LLC, priority 2009, dated 2017)

Experiments:
[1] = tested on: GL261 murine brain tumor cells; assay: GL261 potentially lethal damage repair (PLDR); assay type: cell-based
Description: PLDR was also measured using the 10% survival level in both control and Tetrac treated-cells, and was also done for both exponentially growing and plateau phase cells. The total 10% survival dose was given, and then cells were placed back into the 37° C. incubator for various periods of time. At 0, 0.5, 1.0, 1.5, 2.0, 3.0, 4.0, 6.0, 8.0, and 10.0 hours, flasks were removed, and processed for survival assessment.
To investigate the effects of tetrac on SLDR and PLDR, cells were chosen that had been given a one-hour treatment with tetrac at two different times, i.e., at 70 and 270 hours post-seeding).

GL261 tumor cells = assay: GL261 apoptosis and necrosis with or without 5 Gy x-rays; assay type: cell-based, murine; conditions: Tetrac 2 μM, T-NP 0.2 μM
Description: FIG. 61 is a comparison of apoptosis on Tetrac (2 μM) and T-NP (0.2 μM) treated GL261 cells that were or were not exposed to 5 Gy x-rays. The effects of Tetrac and T-NP plus 5 Gy of x-rays on apoptosis appear to be supra-additive.
Apoptotic cells were identified using TUNEL staining (Terminal deoxynucleotidyl transferase dUTP nick end labeling (TUNEL)) (staining kit obtained from Oncor, Gaithersberg, Md.; ApoTag) (See Gavrieli et al., J. Cell. Biol. 1992. 119:493-501). The staining procedures were carried out as instructed by the manufacturer. Gill's hematoxylin was used as a counterstain to discriminate negative cells (purple) from positive cells (brown). Negative controls were performed by omitting the terminal deoxynucleotidyl transferase enzyme. […]
To perform FCM, a total of 10^6 adherent cells were trypsinized and washed once in ambient temperature PBS. […] Cells were left overnight at 4° C. in the dark and were then analyzed on a Coulter fluorescence-activated cell sorter (Coulter Electronics, Hialeah, Fla.). Cells were excited with a single 488 nm argon laser and the resulting fluorescence was detected using a 585 nm filter. Linear red-orange fluorescence (FL3) data were collected in list format and 10,000 events were collected. The distribution of cells within the cell cycle (sub-G1, G1, S, and G2 M phases) was determined using a Coulter software program.

[2] = tested on: human medullary carcinoma of the thyroid (MTC) xenografts; assay: MTC xenograft in nude mice; conditions: over the course of administration
Description: Human medullary carcinoma cells (TT, Catalog No. CRL-1803) were purchased from American Type Culture Collection (Manassas, Va.) and cultured as instructed by the supplier, using a complete growth medium consisting of F-12K medium with 10% FBS. Cells were cultured in 5% CO2/air atmosphere at 37 C to sub-confluence and then treated with 0.25% (w/v) trypsin/EDTA to affect cell release from the culture vessel. After washing with culture medium, the cells were suspended in DMEM (free of phenol red and FBS) and counted. • Tetrac versus tetrac NP distribution in h-MTC. […] Female NCr nude homozygous mice aged 5-6 weeks and body weights of 20 g were purchased form Taconic Farms (Hudson N.Y.). Animals were maintained under specific pathogen-free conditions and housed 4 animals per cage, under controlled conditions of temperature (20-24° C.) and humidity (60-70%) and a 12 h light/dark cycle. Water and food were provided ad libitum.

## O=C(O)Cc1cc(I)c(Oc2cc(I)c(O)c(I)c2)c(I)c1 [Tetrac, tetraiodothyroacetic acid]
[1]; exponential cells
  factor of inhibition of PLDR: 1.9
[1]; plateau phase cells
  factor of decrease of PLDR expression: 3.4
GL261 tumor cells
  effect on apoptosis combined with 5 Gy of x-rays: supra-additive
GL261 tumor cells; 120 hours
  effect on necrosis combined with x-rays: essentially additive
[2]
  decrease in tumor tissue hemoglobin content: 66%
